From patent US20140225048A1, “LIQUID COMPOSITION, AND COLOR-FILTER RESIST COMPOSITION, THERMAL-TRANSFER RECORDING SHEET AND INK WHICH MAKE USE OF THE LIQUID COMPOSITION” (CANON KABUSHIKI KAISHA, priority 2011, published 2014) come the findings set out here.

The series in a line: Examination of solubility of compounds in toluene. Particulars: in toluene at room temperature.

`Cn1c(=O)cc2c3c(c(Nc4ccccc4)ccc31)C(=O)c1ccccc1-2` [(1)]: the Solubility result was “≦1%”.
Regarding `Cc1ccc(Nc2ccc3c4c(cc(=O)n3C)-c3ccccc3C(=O)c24)cc1` [(2)], the Solubility result is recorded as “≦1%”.
Regarding `Cc1cccc(Nc2ccc3c4c(cc(=O)n3C)-c3ccccc3C(=O)c24)c1` [(3)], the Solubility entry is on record as “≦1%”.
For `Cc1ccc(Nc2ccc3c4c(cc(=O)n3-c3ccc(C)cc3)-c3ccccc3C(=O)c24)cc1` [(4)], the Solubility entry was “≦1%”.
As to `O=C1c2ccccc2-c2cc(=O)n(C3CCCCC3)c3ccc(NC4CCCCC4)c1c23` [(5)], the Solubility entry is “≦0.1% ^”.
Compound `CCCCC(CC)CNc1ccc2c3c(cc(=O)n2C)-c2ccccc2C(=O)c13` (stereo not drawn) [Compound (1)] returned a Solubility of 5%.
In the case of `CCCCC(CC)CNc1ccc2c3c(cc(=O)n2CC(CC)CCCC)-c2ccccc2C(=O)c13` (stereo not drawn) [Compound (5)], the Solubility result is listed as “≧10%^”.
Regarding `CCCCCCCCCCCCNc1ccc2c3c(cc(=O)n2CCCC)-c2ccccc2C(=O)c13` [Compound (8)], the Solubility result is reported as “≧10%^”.
With `CCCCn1c(=O)cc2c3c(c(NCCC4=CCCCC4)ccc31)C(=O)c1ccccc1-2` [Compound (9)], the Solubility result is reported as “≧10%^”.
